Experiments:
K562/i-S9 = experiment: MTT cytotoxicity, resistant K562/i-S9 cells (ABCB1 transfected); format: cell-based, human; settings: for IC50: Homo sapiens, K562i/S9, resistant version, ABCB1 transfected, MTT, 48 h; for resistance of K562/i-S9 cells relative to K562: ratio of IC50 values, Table 4
Source text: At the next stage, the cytotoxic activity of compounds 1, 2, and 9 (Scheme 2) was investigated on several pairs of cell lines that differ in the expression of P-gp and the method by which they were obtained. K562/i-S9 cells are the result of the ABCB1 transfection into K562 cells, which increases P-gp expression, but should not seriously affect other signaling pathways that could lead to drug resistance. K562/i-S9_Dox cells were obtained from K562/i-S9 by selection with low concentrations of doxorubicin to increase P-gp expression. Subline HBL-100/Dox is a derivative of HBL-100 cells, obtained by long-term selection with increasing concentrations of doxorubicin, which led not only to an increase in P-gp expression, but also to a change in the signaling pathways in this subline. Cells of the K562/i-S9_Dox subline express the highest level of P-gp: 94.7% ± 2.3 (p < 0.0001 relative to K562, and p = 0.04 relative to K562/i-S9). In cells of the K562/i-S9 line, the expression of P-gp is 80% ± 8.2 (p < 0.0001 relative to K562). At 0.7% ± 0.5, P-gp is practically not expressed in K562 cells (Figure 1).
Modifications of cell lines: K562/i-S9 is a clone obtained after transfection of K562 cells with the ABCB1 (MDR1) gene-encoding P-glycoprotein [36]. Cells HBL-100/Dox and K562/i-S9_Dox are cells obtained by long-term selection with increasing concentrations of doxorubicin (Sigma-Aldrich, St. Louis, MO, USA) from HBL-100 and K562/i-S9 cells, respectively. MCF-7, A594 cells, and primary cultures of soft tissue sarcomas were cultured in DMEM medium (PanEko, Russia), PC-3 and HCT-116 cells and all suspension cultures in RPMI1640 medium (PanEko, Russia) supplemented with 10% fetal bovine serum (GE Healthcare LifeSciences, USA), and gentamicin at a concentration of 40 μg/mL at 37 °C and 5% CO2.
Cells MCF-7, PC-3, A549, and HCT-116, and primary cultures of STSwere seeded in 96-well plates, 6 × 10^3 cells per well in 90 μL of culture medium. Suspension cultures were seeded at a concentration of 25 × 10^3 cells per well in 135 μL of medium. The test substances were dissolved in DMSO (Applichem, Council Bluffs, IA, USA) until a concentration of 1 × 10^−^2 M was obtained; for the subsequent dilution of the substances, a serum-free culture medium was used. The next day, for adhesive cultures, and on the same day, for suspension cultures, substances were added to the plates in a volume of 10 μL (adhesive cultures) and 15 μL (suspension cultures) per well at various concentrations; each concentration was added in 3–4 repetitions. The cells were cultured in the presence of substances for 48 h. Then, MTT reagent (PanEko, Moscow, Russia) was added to the wells at a concentration of 5 mg/mL in a volume of 20 μL per well. After 1.5–2 h, the medium with the reagent was removed, and the precipitate of the crystals of formazan was dissolved in 60 μL of DMSO. The optical density was determined using a Multiskan FC spectrophotometer (Thermo Scientific, Waltham, MA, USA) at a wavelength of 540 nm.
Based on the results of the experiments, a schedule was plotted of the dependence of the percentage of surviving cells (from control) on the concentration of the compound, and the sought concentration IC50 was calculated. The experiments were carried out in 3–4 times.

CREB (pSer133) = experiment: MILLIPLEX MAP 9-Plex, CREB active form in A431 lysates; format: cell-based, human; settings: A431 cell lysates, 10 μM, 1 h, M ± mx; control 154.5 ± 34.2
Source text: We used the MILLIPLEX MAP Multi-Pathway Magnetic Bead 9-Plex-Cell Signaling Multiplex Assay, which allows the simultaneous detection of nine phosphorylated proteins that are markers of the main intracellular signaling pathways (phosphorylation site is indicated in parentheses), a universal transcription factor that controls the expression of immune response genes; apoptosis and cell cycle NFκB (pS536); cAMP-dependent transcription factor (CREB (pS133); mitogen-activated kinase p38 (pT180/pY182); stress-activated protein kinase JNK (pT183/pY185); ribosomal […]; transcription factors STAT3 (pS727) and STAT5A/B (pY694/699); protein kinase B (Akt) (pS473); and kinase regulated by extracellular signals ERK1/2 (pT185/pY187).
The effect of various concentrations of PPA derivatives on the cell culture was studied using xCelligence RTCA equipment (AceaBioscience, San Diego, CA, USA). The concentration closest to the IC50 (10 μM) was chosen as the experimental concentration. The selected concentration of phaeosphaeride A derivatives allows for the assessment of the early effect of compounds on cells and compares their effectiveness. In this experiment, the signaling pathways Akt (pSer473), p70S6K (pThr412), NFkB (p65-pSer536), and CREB (pSer133) were not activated (Table 8). The stress-activated signaling pathways ERK/MAP kinase 1/2 (pThr185/pTyr187), JNK (pThr183/pTyr185), and p38 (pThr180/pTyr182) were activated for these compounds.
We used a MILLIPLEX MAP Multi-Pathway Magnetic Bead 9-Plex-Cell Signaling Multiplex Assay kit (Merck/Millipore), according to the manufacturer’s protocol. A431 cells were cultured in DMEM with 10% FBS in 24-well plates. Compounds were added to the subconfluent cells at a concentration of 10 μM in DMEM medium for 1 h. Each compound was added in 5 experimental repeats. Cell lysates were prepared with lysis buffer (Millipore) with protease inhibitors (Complete, Roche); the protein concentration in the lysates was determined by the Lowry method. In samples equalized in protein concentration, the active forms of kinase cascades were determined using a Bio-Plex 200 fluorescent analyzer (Bio-Rad).

Row | Structure (SMILES) | IC50 (K562/i-S9) [µM] | resistance of K562/i-S9 cells relative to K562 (K562/i-S9) | CREB (pSer133) fluorescence intensity (CREB (pSer133))
1 | C=C1C2=C(C(=O)N1OC)[C@@H](N1CCCC1)[C@@](C)(O)[C@H](CCCCC)O2 [Compound 1] | 2.4 ± 0.6 | slightly greater sensitivity | 329.9 ± 48.4 *↑ rel. units
2 | C=C1C2=C(C(=O)N1OC)[C@@H](N(C)C)[C@@](C)(O)[C@H](CCCCC)O2 [Compound 2, (2S,3R,4R)-4-(dimethylamino)-3-hydroxy-6-methoxy-3-methyl-7-methylene-2-pentyl-3,4,6,7-tetrahydropyrano[2,3-c]pyrrol-5(2H)-one] | 1.6 ± 0.5 |  | 610.0 ± 113.0 *↑ rel. units
3 | C=C1C2=C(C(=O)N1OC)[C@@H](N(CCCC)CCCC)[C@@](C)(O)[C@H](CCCCC)O2 [Compound 5, (2S,3R,4R)-4-(dibutylamino)-3-hydroxy-6-methoxy-3-methyl-7-methylene-2-pentyl-3,4,6,7-tetrahydropyrano[2,3-c]pyrrol-5(2H)-one] |  |  | 202.1 ± 26.3 rel. units
4 | C=C1C2=C(C(=O)N1OC)[C@@H](N(CC)CCO)[C@@](C)(O)[C@H](CCCCC)O2 [Compound 9, (2S,3R,4R)-4-[ethyl(2-hydroxyethyl)amino]-3-hydroxy-6-methoxy-3-methyl-7-methylene-2-pentyl-3,4,6,7-tetrahydropyrano[2,3-c]pyrrol-5(2H)-one] | 2.8 ± 0.6 | tendency towards increased sensitivity | 339.8 ± 53.3 *↑ rel. units
5 | CCCCC[C@@H]1OC2=C(C(=O)N(OC)/C2=C\n2cnnc2)C(n2cnnc2)[C@@]1(C)O (stereo partly shown) [Compound 10] |  |  | 584.8 ± 105.5 *↑ rel. units

From PMC9030166, “Natural Phaeosphaeride A Derivatives Overcome Drug Resistance of Tumor Cells and Modulate Signaling Pathways” (Pharmaceuticals, 2022)
